The values below come from paper PMC7822816, “Halo-fluorescein for photodynamic bacteria inactivation in extremely acidic conditions” (Nature Communications, 2021).

Several values for one entry are separate records, joined by “and”; a condition that tells them apart may be missing. Identical values can stand only once.

The nature of data set [1]: 1O2 phosphorescence emission under different pH and irradiance. Type of data set: physicochemical. The note with it: pH 2.2 (the gastric acidity), 10 μM. The source says: To evaluate the pH-dependent ^1O2 generation, TIF, PB, and RB were chosen here because of their high ^1O2 generation efficiency and low pH0.5. […] Similar results from PB and RB were also observed (Supplementary Figs. 17 and 18). When pH was lowered down to 2.2 (the gastric acidity), appreciable ^1O2 phosphorescence emission was still collected from TIF, indicating the good performance of TIF in photosensitized generation of ^1O2 in extremely acidic condition. Besides, the pH-induced decrease of ^1O2 generation could be compensated through enlarging the light irradiance. […] Therefore, TIF featured good performance for potential photodynamic bacteria inactivation at extremely acidic conditions.
A total of 10 μM TIF solutions were first prepared with citric acid–Na2HPO4 buffer (100 mM, diluted by D2O) to yield different pH (2.2–6.0). Then, a laser of 532 nm was selected as the lighting source, and the ^1O2 phosphorescence emission were collected.
S5.3 1O2 phosphorescence emission of TIF under different pH and irradiance 10 μM TIF solutions were first prepared with citric acid-Na2HPO4 buffer (100 mM, diluted by D2O) to yield different pH (2.2-6.0). The pH value of solution were adjust by HCl (c, diluted by D2O). Then, laser of 532 nm was selected as the light source, and the 1O2 phosphorescence emission were collected by near infrared detector (H-10330)
Supplementary Figure 19. […]

The nature of data set [2]: Photophysical characterization (absorption, fluorescence, phosphorescence, lifetime). Type of data set: physicochemical. As to the method: Section S6. Photophysical Characterizations
S6.1 Absorption, fluorescence, and phosphorescence spectra
Fluorescein and its derivatives were dissolved in DMSO to obtain 1 mM stock solutions.
The stock solutions were diluted with deionized water to 10 μM.
Supplementary Figure 20. The absorption (black), fluorescence (blue), and phosphorescence (red, slit 25 nm) spectra of FL.
Supplementary Figure 21. The absorption (black), fluorescence (blue), and phosphorescence (red, slit 25 nm) spectra of DCF.
S6.2 Fluorescence lifetime
Fluorescence decay samples was recorded with Fluorolog-3 (Horiba). The solution of samples were prepared to be 5 μM in 0.5% (v/v) DMSO, and diluted with 0.1M NaOH.
S6.5 Photophysical properties of the halogenated-fluorescein derivatives
Supplementary Table 4. Photophysical Properties of Halogenated-fluorescein derivatives. […]
a Measured in 2% DMSO; b Measured in 2% DMSO citric acid -disodium hydrogen phosphate buffer; c Measured in a mixed solvent of D 2O and CH3CN (VD2O:
VCH3CN = 1: 15); d The solution of samples were prepared to be 5 μM in 0.5% (v/v) DMSO, and diluted with 0.1 M NaOH.

The subject of data set [3] is C. albicans infection of oral mucosa.
Description: The extremely acidic environment was constructed through changing the pH of the mucosa and diluting PSs in pH 3.0 PBS buffer. […] During the investigations, the infected ICR mice were divided into six groups (six mice per group): blank, light, TIF, TIF + light, Ce 6 + light, and Zn-tpp + light. For comparison and better visualization of the infection, a normal group (no infection) was also included.
To construct the oral mucosal infection model, cotton balls immersed in solutions containing 10^8 CFU/mL of C. albicans were placed in the mouth of mice for 75 min. At day 1 and day 3, 50 μL pH 3.0 PBS and PSs (20 μM, diluted by pH 3.0 PBS) were added to oral mucosa, and treated with different lasers (510 nm for TIF, 660 nm for Ce 6 and Zn-tpp, 50 mW/cm^2) for 10 min.
To investigate the therapy effect, photographs, colonies, weights, and pathology index of mice were taken every other day. After day 3, one mouse in each group was sacrificed, and the tissues of oral mucosa were harvested for hematoxylin and eosin (H&E) staining. The pathology index was evaluated based on the standard given in Supplementary Table 10.
A further data set concerns Salmonella. In words: IC50 of photodynamic inactivation, Salmonella. To be noted: 10 min, pH 2.5, read-out: IC50 (Salmonella).
A short description of data set [4]: Relative singlet oxygen quantum yield (1O2 phosphorescence, Rose Bengal standard). The note with it: pH = 10 media; relative, RB as the standard. Also noted: key: relative to Rose Bengal standard (ΦΔ = 0.75). Type of data set: physicochemical. As to the method: To permit the open-form structure of all fluorescein derivatives, all the measurements were carried out in pH = 10 media.
The singlet oxygen quantum yields (ΦΔ) of all fluorescein-based PSs were evaluated with Rose Bengal as the standard (ΦΔ = 0.75):1 ΦΔ=AsAbsorption/As(Emission)×ARB(Emission)/ARB(Absorption)×0.75 Here, the area of absorption (RB and PSs) was collected with an integrating sphere (λex = 510 nm), while the area of emission was obtained from the characterized 1270 nm ^1O2 phosphorescence emission. For collection of such emission, CH3CN and D2O mixed solvent (v (D2O): v (CH3CN) = 1:15, pH = 9.0, adjusted with 0.001 M NaOH) was used, since H2O can severely quench the singlet oxygen luminescence. For all the measurements, the concentrations of the PSs were set at 10 μM.
S6.3 Relative singlet oxygen quantum yield
The singlet O2 quantum yield of photosensitizers were measured by Fluolog-3 spectrofluorometer with an integration sphere (IS80, Labsphere) and NIR detector (Hamamatsu H-10330) in this work.
For better collection of the characterized singlet oxygen phosphorescence emission (1275 nm), CH3CN and D2O mixed solvent was used (H2O can severely quench the singlet oxygen luminescence). The 10 mM stock solutions in CH3CN and D2O mixed solvent (VCH3CN:VD2O = 15:1) were first prepared. The stock solutions were diluted to 10 μM, and the final volume was 2 mL. In addition, the CH3CN and D2O mixed solvent as blank was also prepared.
1. Turn on the instrument and the start software, the light source is xenon lamp.
2. From the experiment menu, selected spectra, emission. The 1O2 emission phosphorescence spectra are first measured.
3. The parameters setting are listed: a. Excitation wavelength: 510 nm

Data set [5] has as its system bacteria in passionfruit lemon juice. In words: Photodynamic sterilization of acidic juices. The method, then:
The prepared juice samples were divided into two groups: one for light treatment of 10–20 min (xenon lamp with 420 nm long-pass filter, 100 mW/cm^2), and another without (stored at 4 °C). […] For other juices (pH 3.6–4.6), similar bacteria inhibition results were obtained (Supplementary Figs. 63–66). Besides, the greatly extended shelf life was also applicable to strawberry juice (Supplementary Fig. 67) and tomato juice (Supplementary Fig. 68). […] It should be noted that the TIF-based method was efficient in treatment of acid- and heat-resistant A. acidoterrestris (Fig. 6), the main cause of fruit juice spoilage and deterioration (even after pasteurization[41]).
Fresh juices were prepared and divided into two groups (each to a culture dish of 60 mm id), and then TIF was added with final concentration of 10 μM. One group was subjected to light processing (xenon lamp, 300 W, 420 nm optical filter, beam spot size 60 mm) for 10–20 min, and another without. All samples were sub-packed into the headspace bottle and stored in 4 °C for different time. To determine the bacteria colonies, 1 mL juice samples were mixed with plate count agar and culture at 37 °C for 48 h (GB 4789.2-2016). Afterward, the total number of bacteria colonies were counted.

The subject of a further data set is A. acidoterrestris. In words: IC50 of photodynamic inactivation, A. acidoterrestris. The note with it: Alicyclobacillus acidoterrestris, 10 min; pH 2.5; LED 520 nm, 35 mW/cm^2, 10 min. It counts as cell-based.

Protocol for Salmonella: The bacteria were cultured overnight in a constant temperature oscillator (37 °C, 170 r/min, the specific culture conditions were listed in Supplementary Table 6). Suspensions of bacteria (100 μL, diluted 1000-folds, PBS) were added with different concentration PSs (final volume of 1 mL), and irradiated with LED (λ = 520 nm, 35 mW/cm^2) for 10 min. Then, the treated bacteria liquid (100 μL) were added into the culture medium and cultured in a 24-well plate. The OD600 of bacteria was measured to obtain the bacteria CFUs, and the survival rate were calculated as C/C0 × 100%, where C is the CFU of sample which treated with PSs and light, and C0 is the blank without any treatment. All photodynamic sterilizations were carried out in at least three replicates.
Growth inhibition of E. coli by different concentrations of TIF.
Irradiation: 520 nm green LED (6 mW/cm2), 10 min. Error bars = Standard Deviation (n=6).
Growth inhibition of Salmonella by different concentrations of
TIF. Irradiation: 520 nm green LED (6 mW/cm2), 10 min.

What is called IC50 is the midpoint of a concentration-inhibition curve. Turning to `O=C(O)c1ccccc1-c1c2cc(I)c(=O)c(I)c-2oc2c(I)c(O)c(I)cc12` [TIF, 2′,4′,5′,7′-tetraiodofluorescein], in data set [1], the “1O2 phosphorescence emission (1270 nm)” value is on record as “appreciable”. In data set [2], the kdec is 1e+11 s⁻¹, the knr stood at 9.97e+10 s⁻¹, the krad was 3e+08 s⁻¹ and the maximum absorption is 526 nm. In data set [2] (5 μM in 0.5% (v/v) DMSO, diluted with 0.1 M NaOH), the ΦFL came to 0.003. In data set [2] (2% DMSO), the λAbs is reported as 527 nm, the λPh was found to be 701 nm and the λem is listed as 551 nm. This molecule also yielded a τfl in data set [2] (fluorescence lifetime, 5 μM in 0.5% DMSO, 0.1 M NaOH) of 0.01 ns. For the same molecule, the “pseudo membrane on tongue” value in data set [3] (TIF + light group) is given as “disappeared gradually”. Besides, the “body weight loss of infected mice” value in data set [3] (TIF + light group, within 7 days) is listed as “least loss”. Besides, the pathology index result in data set [3] (TIF + light group, 20 μM in pH 3.0 PBS, 510 nm 50 mW/cm^2 10 min, day 1 and day 3) is reported as “remained almost unchanged”. Further, in data set [3] (TIF group, no light), the “H&E staining of tongue sections, without light” value is on record as “large amounts of inflammation infiltration”. Also, the “H&E staining of tongue sections, with light” value in data set [3] (photosensitizer + light (510 nm TIF, 660 nm Ce 6 and Zn-tpp)) is on record as “generally similar to that of the normal group”. For the same molecule, the 50% inhibitory concentration (IC50) with Salmonella is 630 nM. The “singlet oxygen quantum yield (ΦΔ)” value in data set [4] is 0.64. Also, the “shelf life of juice after photo-treatment” value in data set [5] (passionfruit lemon juice pH 2.8, 10 μM, xenon lamp 420 nm long-pass 100 mW/cm^2, 10 min, stored at 4 °C) was ~ 15 days and 15 days. In addition, the “sterilization performance compared with standard methods” value in data set [5] (passionfruit lemon juice, versus pasteurization and O3 treatment) is recorded as “comparable sterilization performance as pasteurization”. Besides, the half-inhibitory concentration (IC50) with A. acidoterrestris turned out to be 580 nM.
